Measured values reported in paper PMC8632718, “Novel Assay Platform to Evaluate Intracellular Killing of Mycobacterium tuberculosis: In Vitro and In Vivo Validation” (Frontiers in Immunology, 2021).
Ends that are not written are not given here.

What was measured:
[1] = Analytical RP-HPLC retention time (correlates with overall hydrophobicity); type: physicochemical; set-up: Rt (retention time): unit not given here; details: for Rt (retention time): chromatographic measure of hydrophobicity, Waters Acquity UPLC BEH C18 (1.7 µm, 150 × 2.1 mm), flow rate 0.3 ml/min, gradient 2% B 1 min, 2%–100% B 16 min, single peak or first of two 5(6)-Cf isomer peaks; for Rt (retention time), second peak: same column and gradient, second peak due to 5(6)-Cf isomers
Procedure: Purified peptides were analyzed by LC-MS using a Thermo Scientific Q Exactive Focus Hybrid Quadrupole-Orbitrap Mass Spectrometer. For the separation, a Waters Acquity UPLC BEH C18 (1.7 µm, 150 × 2.1 mm) column was used with a flow rate of 0.3 ml/min.
For INH conjugation, representative cell-penetrating (CPP) and antimicrobial peptides (AMP) were chosen. These cationic, amphiphilic peptides are favored in the transportation of various cargos due to their high internalization rate. The used peptide series contains well-known CPPs such as penetratin, transportan, and Tat, frequently studied AMPs such as magainin and buforin, and designed analogs such as Dhvar4, Crot(1-9,38-42), and CM15. Also, a receptor-binding tuftsin analog (OT20), which was reported as a macrophage-targeting peptide, was also applied. […] Mass spectra and RP-HPLC chromatograms are available at https://figshare.com/s/48a023a25068f7658adf, DOI: 10.6084/m9.figshare.16644901. […] To study the internalization rate and intracellular localization, fluorescently labeled analogs were also synthesized. Note that the retention time of Cf-peptide are somewhat higher than unlabeled analogs, and in some cases, two peaks were detected due to the isomeric distribution of 5(6)-Cf molecule.

MonoMac-6 cells = type: cell-based, human; details: 10 µM Cf-peptide, 2 h, LysoTracker, ImageJ JACoP on merged images
Procedure: Cellular uptake and localization were visualized by confocal laser scanning microscopy. MonoMac-6 cells were seeded 1 day prior to treatment into coverslips (thickness 1, Assistent, Karl Hecht GmbH, Sondheim vor der Rhön, Germany) containing a 24-well plate (Sarstedt, Nümbrecht, Germany) for microscopy studies at a density of 7.5 × 10^4 cells/well, in 1 ml complete DMEM medium. The following day, cells were treated with Cf-peptide at a concentration of 10 µM (diluted in serum-free DMEM medium) for 2 h. Lysosomes were stained by LysoTracker Deep Red (Invitrogen, Waltham, MA, USA) for 30 min, and nuclei were stained by Hoechst 33342 solution (Thermo Scientific, USA). After each step, cells were washed three times with serum-free medium, then cells were fixed by 4% paraformaldehyde for 15 min and mounted to microscopy slides with Mowiol 4-88 (Sigma, Budapest, Hungary). Imaging was performed by a Zeiss LSM-710 system (Carl Zeiss microscopy GmbH, Oberkochen, Germany) with a ×40/1.4 Plan-Apochromat oil immersion objective using lasers with the parameters: Cf peptides λex = 488 nm, λem = 541 nm, nuclei λex = 405 nm, λem = 467 nm (Hoechst 33342), lysosomes λex = 633 nm, λem = 720 nm (LysoTrackerTM Deep Red) or λex = 577 nm, λem = 590 nm (LysoTrackerTM Red DND-99) were used. Zeiss ZEN lite software (Carl Zeiss Microscopy GmbH, Jena, Germany) was used for image processing.
Parallel with flow cytometry measurements, confocal laser scanning microscopy images were also captured in order to assess qualitative information on intracellular localization. LysoTrackerTM Deep Red was used for lysosome and Hoechst 33342 for nuclear staining to distinguish subcellular localization of the Cf-peptide. […] Colocalization of Cf-peptide and LysoTracker may be subjectively identified by the cooccurrence, the simple spatial overlap which combined the contribution of both signals (green and red) when the images of each signal are superimposed (merged, see Supplementary Figure S3 ).
microscopy at the 10 µM Cf-peptide concentration (based on flow cytometry profile), and MonoMac6 cells were incubated for 2 hrs.
the visible differences among localization profiles of the Cf-peptides, we applied greyscale analysis of
the images and the evaluation was carried out on a representative peptide set.
were studied and the treatment, the staining and fixation process were carefully optimized to assess
Laser intensity values were identical in case of all Cf-peptides. ZEN 3.0 blue lite software
was used for image processing and grey scale values were extracted using NIH ImageJ software’s Plot

[2] = system: CALU-1 monolayer / EBC-1 cells; type: in vitro ADME, human; details: Transwell, 0.4 µm polycarbonate, Cf-peptide apical 10 and 20 µM, 45 min, apical to basolateral; EBC-1 fluorescence read-out
Procedure: EBC-1 lung squamous carcinoma and CALU-1 human lung epidermoid carcinoma were seeded on 24-well plates with Transwell inserts (TW) [Nunc, Sigma polycarbonate microporous membrane, 0.4 µm pore size (growth area 0.412 cm^2)]. Before use, TW inserts were incubated with ICM. On day 1, 300 μl of CALU-1 suspension in complete DMEM medium (8.0 × 10^5 cells) was pipetted onto the surface of the TW apical chamber and 500 μl complete DMEM medium was added to the basolateral side. In order to avoid nonattached cells, after incubation at 37°C for 5–6 h, the apical medium was removed and replaced with fresh complete DMEM medium. […] On day 5, the medium was changed, then Cf-peptide was added to the CALU-1-containing apical side at 10 and 20 µM concentrations, and the system was incubated for 45 min or 3 h (37°C, 5% CO2). The TW chamber was removed after incubation. EBC-1 cells were studied using flow cytometry (BD LSR II).
EBC-1 cells were treated without the presence of the TW inserts as controls (on day 4 prior to treatment, EBC-1 cells (10^5 cells/well in complete DMEM). […]
Figure 7 The penetration ability of Cf-peptides was determined on Transwell bronchial interface, and the penetration rates were quantified by flow cytometry. […] The confluence of CALU-1 monolayer was monitored with CellTracker Green, and after development of stable green fluorescence, cells were imaged in situ. […]

[3] = type: in vitro ADME; details: rat liver lysosomal homogenate, 37 °C, LC-MS
Procedure: Next, we examined the enzymatic stability of two peptide conjugates in rat liver lysosomal homogenate (see Supplementary Information 2 for the method description). Peptides were dissolved at 0.025 µg/µl concentration then allowed to react with the lysosomal homogenate. Degradation of the conjugates was fast. […]
1.2 Lysosomal degradation studies
Enzymatic stability of INH-Dhvar4 and INH-Penetratin conjugates were assayed in rat liver lysosomal homogenate (protein content was 16.6 µg/µl). Peptides were dissolved in 0.2 M Sodium acetate buffer (pH=5.03) at 0.025 µg/µl concentration and added to the lysosomal homogenate to reach 1 : 1 protein / peptide ratio (37 °C, 600 rpm vortex) . At different time points (5 min, 30 min, 1 h, 6 h, 24 h) the reaction was stopped by the addition of 5 µl formic acid. Sampled were then measured by LC-MS using a Thermo Scientific Q Exactive Focus Hybrid Quadrupole -Orbitrap Mass Spectrometer (Suppl. Figu re 1). For chromatography, a Wa ters Acquity UPLC BEH C18 (1.7 µ, 150 × 2.1 mm) column was used with a flow rate of 300 µL/min applying a gradient elution from 2% to […]
(1 picture or pasted object on this page, not shown here)

Compound	Rt (retention time) [1]	other results
CC[C@H](C)[C@H](NC(=O)[C@H](CCCCN)NC(=O)[C@H](CCCCN)NC(=O)[C@H](C)NC(=O)[C@H](CC(C)C)NC(=O)[C@H](C)NC(=O)[C@H](C)NC(=O)[C@H](CC(C)C)NC(=O)[C@H](C)NC(=O)[C@H](CCCCN)NC(=O)[C@H](CC(C)C)NC(=O)[C@H](CC(N)=O)NC(=O)[C@@H](NC(=O)[C@H](CCCCN)NC(=O)CNC(=O)[C@H](CC(C)C)NC(=O)[C@H](CC(C)C)NC(=O)[C@H](Cc1ccc(O)cc1)NC(=O)CNC(=O)[C@H](C)N)[C@@H](C)CC)C(=O)N[C@@H](CC(C)C)C(N)=O [reference compound]	10.6	–
Cf-AGYLLGKINLKALAALAKKIL [Cf-Penetratin, 5(6)-carboxyfluorescein-labeled penetratin]	–	Pearson's coefficient of colocalization with lysosomal staining (MonoMac-6 cells): 0.490
Cf-RAGLQFPVGRVHRLLRK [Cf-Buforin, 5(6)-carboxyfluorescein-labeled buforin]	7.7	Rt (retention time), second peak [1]: 7.8
TKPKGTKPKGTKPKGTKPKG-NH2 [OT20, reference compound]	1.6	–
RAGLQFPVGRVHRLLRK-NH2 [Buforin, reference compound]	6.6	–
CC[C@H](C)[C@H](NC(=O)[C@H](CCCCN)NC(=O)[C@@H](NC(=O)[C@H](CCC(N)=O)NC(=O)[C@@H](N)CCCNC(=N)N)[C@@H](C)CC)C(=O)N[C@@H](Cc1c[nH]c2ccccc12)C(=O)N[C@@H](Cc1ccccc1)C(=O)N[C@@H](CCC(N)=O)C(=O)N[C@@H](CC(N)=O)C(=O)N[C@@H](CCCNC(=N)N)C(=O)N[C@@H](CCCNC(=N)N)C(=O)N[C@@H](CCSC)C(=O)N[C@@H](CCCCN)C(=O)N[C@@H](Cc1c[nH]c2ccccc12)C(=O)N[C@@H](CCCCN)C(=O)N[C@@H](CCCCN)C(N)=O [Penetratin, reference compound]	6.1	penetration through CALU-1 monolayer and internalization into EBC-1 cells [2]: higher internalization rates
Cf-TKPKGTKPKGTKPKGTKPKG [Cf-OT20, 5(6)-carboxyfluorescein-labeled OT20]	4.9	Rt (retention time), second peak [1]: 5.0
CC[C@H](C)[C@H](NC(=O)CN)C(=O)NCC(=O)N[C@@H](C)C(=O)N[C@H](C(=O)N[C@@H](CC(C)C)C(=O)N[C@@H](CCCCN)C(=O)N[C@H](C(=O)N[C@@H](CC(C)C)C(=O)N[C@H](C(=O)N[C@H](C(=O)NCC(=O)N[C@@H](CC(C)C)C(=O)N1CCC[C@H]1C(=O)N[C@@H](C)C(=O)N[C@@H](CC(C)C)C(=O)N[C@H](C(=O)N[C@@H](CO)C(=O)N[C@@H](Cc1c[nH]c2ccccc12)C(=O)N[C@H](C(=O)N[C@@H](CCCCN)C(=O)N[C@@H](CCCNC(=N)N)C(=O)N[C@@H](CCCCN)C(=O)N[C@@H](CCCNC(=N)N)C(=O)N[C@@H](CCC(N)=O)C(=O)N[C@@H](CCC(N)=O)C(N)=O)[C@@H](C)CC)[C@@H](C)CC)[C@@H](C)O)[C@@H](C)O)C(C)C)C(C)C [Melittin, reference compound]	10.6	–
Cf-YGRKKRRQRRR [Cf-Tat, 5(6)-carboxyfluorescein-labeled Tat]	4.6	Rt (retention time), second peak [1]: 5.0
KWKLFKKIGAVLKVL-NH2 [CM15, reference compound]	8.4	–
Cf-YKQCHKKGGKKGSG [Cf-Crot(1-9,38-42), 5(6)-carboxyfluorescein-labeled Crot(1-9,38-42)]	5.5	Rt (retention time), second peak [1]: 5.8
CC[C@H](C)[C@H](NC(=O)[C@H](CCCCN)NC(=O)[C@@H](NC(=O)[C@H](CCC(N)=O)NC(=O)[C@H](CCCNC(=N)N)NC(=O)CNNC(=O)c1ccncc1)[C@@H](C)CC)C(=O)N[C@@H](Cc1c[nH]c2ccccc12)C(=O)N[C@@H](Cc1ccccc1)C(=O)N[C@@H](CCC(N)=O)C(=O)N[C@@H](CC(N)=O)C(=O)N[C@@H](CCCNC(=N)N)C(=O)N[C@@H](CCCNC(=N)N)C(=O)N[C@@H](CCSC)C(=O)N[C@@H](CCCCN)C(=O)N[C@@H](Cc1c[nH]c2ccccc12)C(=O)N[C@@H](CCCCN)C(=O)N[C@@H](CCCCN)C(N)=O [INH-Penetratin]	–	peaks of the intact conjugates after 30 min of incubation ([3]; 0.2 M sodium acetate buffer pH 5.03, 0.025 µg/µl, 1:1 protein/peptide ratio): almost disappeared; most stable fragment (main peak after 24 h of incubation) ([3]; pH 5.03, 0.025 µg/µl): tetrapeptide (RQIK) with INH
N=C(N)NCCC[C@H](NC(=O)[C@H](CCCNC(=N)N)NC(=O)[C@H](CCCNC(=N)N)NC(=O)[C@H](CCC(N)=O)NC(=O)[C@H](CCCNC(=N)N)NC(=O)[C@H](CCCNC(=N)N)NC(=O)[C@H](CCCCN)NC(=O)[C@H](CCCCN)NC(=O)[C@H](CCCNC(=N)N)NC(=O)CNC(=O)[C@@H](N)Cc1ccc(O)cc1)C(N)=O [Tat, reference compound]	0.9	–
YKQCHKKGGKKGSG-NH2 [Crot(1-9,38-42), reference compound]	0.8	–
Cf-KWKLFKKIGAVLKVL [Cf-CM15, 5(6)-carboxyfluorescein-labeled CM15]	9.6	Rt (retention time), second peak [1]: 9.7; Pearson's coefficient of colocalization with lysosomal staining (MonoMac-6 cells): 0.358
Cf-GIGAVLKVLTTGLPALISWIKRKRQQ [Cf-Melittin, 5(6)-carboxyfluorescein-labeled melittin]	12.2	–
GIGKFLHSAKKFGKAFVGEIMNS-NH2 [Magainin, reference compound]	8.2	–
Cf-GIGKFLHSAKKFGKAFVGEIMNS [Cf-Transportan, 5(6)-carboxyfluorescein-labeled transportan]	–	Pearson's coefficient of colocalization with lysosomal staining (MonoMac-6 cells): 0.823
